This is an account of results in ChEMBL document CHEMBL5614420, “Development of peptoid-based heteroaryl-decorated histone deacetylase (HDAC) inhibitors with dual-stage antiplasmodial activity” (Eur J Med Chem, 2024).

The subject of data set [1] is Plasmodium berghei. In words: Antiplasmodial activity against exo-erythrocytic stage Plasmodium berghei sporozoites expressing GFP-Luc fused genes infected in human HepG2-A16-CD81 cells expressing EGFP assessed as parasitic growth inhibition measured for 20 hrs by Bright-Glo Luciferase Assay. It counts as functional, organism-based. Conditions: HepG2-A16-CD81, 20 h.

Data set [2] in a line: Selectivity index, ratio of IC50 for human NFF cells to IC50 for synchronous ring-stage Plasmodium falciparum 3D7 infected in human erythrocytes.
Data set [3] has as its system Plasmodium falciparum. The experiment in a line: Antiplasmodial activity against synchronous ring-stage Plasmodium falciparum Dd2 infected in human erythrocytes assessed as parasitic growth inhibition measured after 48 hrs by [3H]hypoxanthine incorporation assay. Conditions: Dd2, Erythrocyte. It counts as functional, organism-based.
Data set [4] can be described thus: Cytotoxicity against human NFF cells incubated for 72 hrs by SRB assay. Background: The SRB assay estimates cell density from bound dye.
The test system of data set [5] is Plasmodium falciparum. In words: Antiplasmodial activity against synchronous ring-stage Plasmodium falciparum 3D7 infected in human erythrocytes assessed as parasitic growth inhibition measured after 48 hrs by [3H]hypoxanthine incorporation assay. Conditions: 3D7, Erythrocyte. It counts as functional, organism-based.
The nature of data set [6]: Cytotoxicity against HEK293 cells incubated for 24 hrs by Neutral Red Uptake assay. Conditions: human.
Data set [7] can be described thus: Selectivity index, ratio of IC50 for HEK293 cells to IC50 for multidrug-resistant asexual ring-stage Plasmodium falciparum Dd2 infected in erythrocytes. The following applies: human.
A short description of data set [8]: in vitro. Conditions: human, liver microsomes. (Liver microsomes are vesicles of endoplasmic reticulum, rich in cytochrome P450 enzymes.)
The subject of data set [9] is Plasmodium falciparum. The experiment in a line: Antiplasmodial activity against multidrug-resistant asexual ring-stage Plasmodium falciparum Dd2 infected in erythrocytes assessed as parasitic growth inhibition measured after 72 hrs by ELISA. It is filed as functional, organism-based. The following applies: Dd2, Erythrocyte. A general note: An ELISA detects its analyte on a solid surface through an enzyme-linked reagent.

For data set [10], the system named is Plasmodium berghei. In words: Antiplasmodial activity against exo-erythrocytic stage Plasmodium berghei sporozoites expressing ANKA-GFPLuc-SMCON infected in human HepG2-A16-CD81 cells expressing EGFP assessed as parasitic growth inhibition by […]. It is filed as functional, organism-based.
A short description of data set [11]: Selectivity index, ratio of IC50 for HEK293 cells to IC50 for exo-erythrocytic stage Plasmodium berghei sporozoites expressing GFP-Luc fused genes infected in human HepG2-A16-CD81 cells expressing EGFP. It counts as toxicity, cell-based. The following applies: read-out: Ratio IC50.
Data set [12] can be described thus: Selectivity index, ratio of IC50 for HEK293 cells to IC50 for CQ-sensitive asexual ring-stage Plasmodium falciparum 3D7 infected in erythrocytes. The following applies: human.
Data set [13] has as its system Plasmodium falciparum. In words: Antiplasmodial activity against CQ-sensitive asexual ring-stage Plasmodium falciparum 3D7 infected in erythrocytes assessed as parasitic growth inhibition measured after 72 hrs by ELISA. It is filed as functional, organism-based. The following applies: 3D7, Erythrocyte.
Data set [14] concerns Plasmodium falciparum. In words: Resistance index, ratio of IC50 for multidrug-resistant asexual ring-stage Plasmodium falciparum Dd2 infected in erythrocytes to IC50 for CQ-sensitive asexual ring-stage Plasmodium falciparum 3D7 infected in erythrocytes. It counts as functional.
The nature of data set [15]: in vitro. Conditions: human, liver microsomes. The source holds these as a separate data set.

The structures appear in SMILES notation. pIC50: −log10 of the molar value. Where only a bound is given, the exact number is not on record here.

A word on the pIC50: it is the IC50 on a negative log10 scale, so that one unit is a factor of ten. Consider `O=C1C(O)=C([C@H]2CC[C@H](c3ccc(Cl)cc3)CC2)C(=O)c2ccccc21` [ATOVAQUONE], for which, in the data set with Plasmodium berghei [1], the negative-log IC50 (pIC50) is over 10.29.

The term IC50 denotes the point on the concentration scale where inhibition reaches its midpoint. For the compound `O=C(/C=C/c1cccc(S(=O)(=O)Nc2ccccc2)c1)NO` [BELINOSTAT], the selectivity ratio in [2] came out at 40. The negative logarithm of the IC50 (pIC50) in the data set with Plasmodium falciparum [3] was 6.89; in the data set on Plasmodium falciparum [5], 7.22. In data set [4], this compound came in with an IC50 at 72 h of 2370 nM.

Consider `C/C=C1\NC(=O)[C@H]2CSSCC/C=C/[C@H](CC(=O)N[C@H](C(C)C)C(=O)N2)OC(=O)[C@H](C(C)C)NC1=O` [ROMIDEPSIN], for which the selectivity ratio in data set [2] is under 1. In addition, the half-inhibitory concentration (IC50) at 72 h in [4] was 1 nM.

`Cc1[nH]c2ccccc2c1CCNCc1ccc(/C=C/C(=O)NO)cc1` [PANOBINOSTAT]: in data set [2], the selectivity ratio amounted to 7. In addition, the negative logarithm of the IC50 (pIC50) is 7.52 in the data set on Plasmodium falciparum [3] and 8.00 with Plasmodium falciparum [5]. The compound also yielded an IC50 at 72 h in data set [4] of 70 nM.

In the case of `CCN(CC)CCCC(C)Nc1ccnc2cc(Cl)ccc12` (configuration not stated) [CHLOROQUINE], inhibition in [6] was half-maximal at 265000 nM (IC50 at 24 h).

What is called microsomal CLint is the capacity of the preparation to metabolise the compound, expressed as a volume cleared per time. Low values mean slow turnover, high ones rapid turnover. By half-life is commonly meant the time needed for the level to fall by half in the phase considered. Lower therefore signals fast loss. Regarding `CC(C)c1ccc(C(=O)N(CC(=O)NCc2ccccc2)Cc2ccc(C(=O)NO)cc2)cc1`, the selectivity ratio was determined as 284 in data set [7], 4310 in data set [11] and 1100 in data set [12]. Also, the microsomal CLint at 1 h, 1 µM in the data set “in vitro [8]” turned out to be 112 µL/min/mg. The negative-log IC50 (pIC50) is 6.61 in the data set with Plasmodium falciparum [9], 7.80 in the data set with Plasmodium berghei [10] and 7.20 with Plasmodium falciparum [13]. The compound also came in with a half-inhibitory concentration (IC50) at 24 h in data set [6] of 69000 nM. In addition, in the data set with Plasmodium falciparum [14], the “Ratio IC50” value was 4. Also, the half-life at 1 h, 1 µM in the data set “in vitro [15]” was 12.4 min.
